Target: T1, human recombinant renin (Homo sapiens, UniProt P00797)
T1 sequence (P00797 67-406): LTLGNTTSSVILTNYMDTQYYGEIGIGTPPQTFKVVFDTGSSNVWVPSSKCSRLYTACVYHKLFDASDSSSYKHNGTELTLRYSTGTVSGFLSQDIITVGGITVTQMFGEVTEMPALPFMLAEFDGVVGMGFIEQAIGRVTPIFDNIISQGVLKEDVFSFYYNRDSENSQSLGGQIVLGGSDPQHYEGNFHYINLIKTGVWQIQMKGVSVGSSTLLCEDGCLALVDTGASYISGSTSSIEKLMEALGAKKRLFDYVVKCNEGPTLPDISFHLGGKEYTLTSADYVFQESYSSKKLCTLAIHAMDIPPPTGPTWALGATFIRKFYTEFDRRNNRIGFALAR
Assay: Inhibition of human recombinant renin, enzymatic in vitro assay with Ang I detection by EIA
Assay type: biochemical
Settings: human recombinant renin 0.16 ng/mL, synthetic human angiotensin (1-14) 0.5 μM, 37° C. for 3 h; read-out: IC50 (concentration of renin inhibition that inhibited the enzyme activity by 50%)
Description: Inhibition of Human Recombinant Renin by the Compounds of the Invention The enzymatic in vitro assay was performed in 384-well polypropylene plates (Nunc). The assay buffer consisted of 10 mM PBS (Gibco BRL) including 1 mM EDTA and 0.1% BSA. The incubates were composed of 50 μL per well of an enzyme mix and 2.5 µL of renin inhibitors in DMSO. The enzyme mix was premixed at 4° C. and consists of the following components: • human recombinant renin (0.16 ng/mL)●synthetic human angiotensin (1-14) (0.5 μM) • hydroxyquinoline sulfate (1 mM) The mixtures were then incubated at 37° C. for 3 h. To determine the enzymatic activity and its inhibition, the accumulated Ang I was detected by an enzyme immunoassay (EIA) in 384-well plates (Nunc). 5 μL of the incubates or standards were transferred to immuno plates which were previously coated with a covalent complex of Ang I and bovine serum albumin (Ang I—BSA). 75 μL of Ang I-antibodies in essaybuffer above including 0.01% Tween 20 were added and a primary incubation made at 4° C. overnight. The plates were washed 3 times with PBS including 0.01% Tween 20, and then incubated for 2 h at rt with an antirabbit-peroxidase coupled antibody (WA 934, Amersham).

Compound: Cc1c(CN(C(=O)C2=C(c3ccc(CCCOc4c(F)ccc(F)c4Cl)cc3)C[C@@H]3CC[C@H]2N3)C2CC2)ccnc1OCCCO (racemic) [Example 1, (rac.)-(1R*, 5S*)-3-{4-[3-(2-Chloro-3,6-difluorophenoxy)propyl]phenyl}-8-azabicyclo[3.2.1]oct-2-ene-2-carboxylic acid cyclopropyl-[2-(3-hydroxy-propoxy)-3-methylpyridin-4-ylmethyl]amide]
- IC50: 0.25 nM

Compound: Cc1cc(Cl)c(OCCOc2ccc(C3=C(C(=O)N(Cc4ccnc(OCCCO)c4C)C4CC4)C4CCC(C3)N4)cc2)c(Cl)c1 (racemic) [Example 2, (rac.)-(1R*, 5S*)-3-{4-[2-(2,6Dichloro-4-methylphenoxy)ethoxy]phenyl}-8-azabicyclo[3.2.1]oct-2-ene-2-carboxylic acid cyclopropyl-[2-3-hydroxy-propoxy)-3-methylpyridin4-ylmethyl]amide]
- IC50: 0.18 nM

Compound: Cc1c(CN(C(=O)C2=C(c3ccc(CCCOc4c(F)ccc(F)c4Cl)cc3)CC3CS(=O)(=O)CC2N3)C2CC2)ccnc1OCCCO (racemic) [Example 3, (rac.)-(1R*, 5S*)-7-14-[3-(2-Chloro-3,6-difluorophenoxy)propyl]phenyl}-3,3-dioxo-3λ^6-thia-9-azabicyclo[3.3.1]non-6-ene-6-carboxylic acid cyclopropyl-[2-(3-hydroxypropoxy)-3-methylpyridin-4-ylmethyl]amide]
- IC50: 5.51 nM

Compound: Cc1c(CN(C(=O)C2=C(c3ccc(CCCOc4c(F)ccc(F)c4Cl)cc3)CC3COCC2N3)C2CC2)ccnc1OCCCO (racemic) [Example 4, (rac.)-(1R*, 5S*)-7-(4-13-(2-Chloro-3,6-difluorophenoxy)propyl]phenyl}-3-oxa-9-azabicyclo[3.3.1]non-6-ene-6-carboxylic acid cyclopropyl-[2-(3-hydroxypropoxy)-3-methylpyridin-4-ylmethyl]amide]
- IC50: 0.55 nM

Compound: Cc1c(CN(C(=O)C2=C(c3ccc(CCCOc4c(F)ccc(F)c4Cl)cc3)C[C@@H]3CC[C@H]2N3)C2CC2)ccnc1OCCC(=O)O (racemic) [Example 5, (rac.)-(1R*, 5S*)-3-(4-{[(3-{4-[3-(2-Chloro-3,6-difluorophenoxy)propyl]-phenyl}-8azabicyclo[3.2.1]oct-2-ene-2-carbonyl)cyclopropylamino]methyl}-3-methyl-pyridin-2-yloxy)propionic acid]
- IC50: 3 nM

Compound: COC(=O)CCOc1nccc(CN(C(=O)C2=C(c3ccc(CCCOc4c(F)ccc(F)c4Cl)cc3)CC3CCC2N3)C2CC2)c1C (racemic) [Example 6, (rac.)-(1R *, 5S*)-3-(4-{[(3-({4-[3-(2-Chloro-3,6-difluorophenoxy)propyl]-phenyl}-8-azabicyclo[3.2.1]oct-2-ene-2-carbonyl)cyclopropylamino]methyl}-3-methylpyridin-2-yloxy)propionic acid methyl ester]
- IC50: 6.7 nM

Compound: Cc1c(CN(C(=O)C2=C(c3ccc(CCCOc4c(F)ccc(F)c4Cl)cc3)C[C@@H]3CC[C@H]2N3)C2CC2)ccnc1OCCC(N)=O (racemic) [Example 7, (rac.)-(1R*, 5S*)-3-{4-[3-(2-Chloro-3,6-difluorophenoxy)propyl]phenyl}-8-azabicyclo[3.2.1]oct-2-ene-2-carboxylic acid [2-(2-carbamoylethoxy)-3-methylpyridin-4-ylmethyl]cyclopropylamide]
- IC50: 3 nM
